Reference: US20230053649A1 (Cedilla Therapeutics, Inc., priority 2021, published 2023)

How the values were obtained:
[1] = tested on: mesothelioma cell line NCI-H226; test: 72H TEAD Proliferation Assay (Cell Titer-Glo 2.0); type: cell-based; conditions: Homo sapiens, CTG 2.0, cell line not given in Table 1 (NCI-H226 TEAD-responsive, NCI-H28 non-responsive counter-screen)
Method: 72H TEAD Proliferation Assay.
The effect of TEAD inhibition on cell proliferation was assayed using Cell Titer Glo (CTG) 2.0 to measure response in mesothelioma cell lines NCI-H226 (ATCC, #CRL-5826) and NCI-H28 (ATCC, #CRL-5820).
The 72H TEAD Proliferation assay utilizes Cell Titer-Glo 2.0 (Promega, #G9243) to measure the proliferation of cells in the presence or absence of compound. Cell Titer-Glo 2.0 determines the amount of viable cells by quantifying ATP (an indication of metabolically active cells). It utilizes the conversion of Luciferin to Oxyluciferin and a luminescent signal with the use of ATP to report the quantity of viable cells in culture. Within cells that are continually growing, ATP is being synthesized to meet their metabolic demands, meanwhile the opposite is true for cells that are dying or slowing down their proliferation and either no longer using ATP or are using less, respectively. The NF2-deficient NCI-H226 has been genetically validated as a cell line that is sensitive to TEAD inhibition. The NF2-wild type NCI-H28 has been genetically validated as a cell line that is not sensitive to TEAD inhibition and grows independently of TEAD activity.
Compounds were screened against the responsive NCI-H226 cell line to assess the compounds' ability to inhibit TEAD and cell growth. Compounds were also screened against the non-responsive NCI-H28 cell line to ascertain whether the inhibition of cell growth was due to inhibition of the target TEAD or whether the inhibition was due to off-target cytotoxicity.
Both NCI-H226 and NCI-H28 cells were grown at 37° C. with 5% CO2 using Growth Medium 1.
Anti-proliferative effect of compounds that inhibits TEAD activity measured by CTG
1) Assay ready plates (ARPs) were prepared by Echo acoustic liquid handler. For each compound, duplicate of 10-point half-log dilution series were dispensed in a 384-well microplate (Corning 3571).
3) Before use, ARPs were allowed to warm up to room temperature for 30 min.
4) ARPs were spun for 5 minutes at 1500RPM before removing the plate seals.
5) NCI-H226 or NCI-H28 cells were harvested from culture in Assay Medium 1 and the multidrop Combi reagent dispenser was used to seed cells at 500 cells per 50ul in each well of the ARPs and one Corning 3571 plate without compounds for Time 0 (TO) readout.
6) The TO plate was incubated for 2 hours at 37° C. with 5% CO2 to allow cells to settle, then the CTG Assay was performed.
7) All ARPs were incubated for 72 hours at 37° C. with 5% CO2, then the CTG Assay was performed for Time 72H (T72) readout.
8) CTG Assay: Bravo liquid handler (Agilent) was used to add 25ul of CTG 2.0 to all columns of the plate except for Column 24, which was used to subtract out the background. After CTG addition, plates were placed on shaker at 800RPM for 15 minutes at room temperature and kept in the dark. Luminescence was measured using EnVision multilabel plate reader with ultra-sensitive detection module.
9) Data Analysis: First background luminescence (no CTG wells) was subtracted from luminescence reading of all wells, then TO luminescence was subtracted from T72 luminescence. To compare anti-proliferative effect of compounds, GI50 was obtained by fitting dose response curves with nonlinear regression curve fit.

[2] = molecular target: TEAD1 protein (YAP Binding Domain) (Homo sapiens, UniProt P28347); test: biochemical
Chain of TEAD1 protein (YAP Binding Domain) (P28347 167-426 limits assumed): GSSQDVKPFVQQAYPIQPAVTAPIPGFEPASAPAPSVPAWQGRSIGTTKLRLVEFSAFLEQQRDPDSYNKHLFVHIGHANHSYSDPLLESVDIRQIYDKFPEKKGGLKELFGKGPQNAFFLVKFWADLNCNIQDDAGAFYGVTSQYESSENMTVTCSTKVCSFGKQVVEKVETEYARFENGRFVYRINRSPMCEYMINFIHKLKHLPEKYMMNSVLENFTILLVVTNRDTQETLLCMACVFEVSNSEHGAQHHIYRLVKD
Method: Compound Displacement Assay.
A TEAD1 lipid pocket displacement assay was carried out according to the following protocol. Purified His-tagged TEAD1 protein (YAP Binding Domain) was pre-mixed with a Cy5-probe (Cy5-conjugated to a small molecule that binds in the TEAD1 lipid pocket) and Terbium-labeled anti-His antibody (Cisbio Cat 61HI2TLB). The binding of the Cy5-probe to anti-His-Tb/His-tag TEAD1 complex yielded a TR-FRET signal. […] After 60 minutes incubation at room temperature of compounds with the His-TEAD1/anti-His-Tb/Cy5-probe complex, the plate was read on a plate reader (BMG ClarioStar Cat 430-1300) using TR-FRET mode with wavelengths of 665 nm/620 nm. The potency of compounds as TEAD1 lipid pocket binders was determined by IC50 value generated using a non-linear 4 parameter curve fit.

| SMILES | GI50 [1] | IC50 [2] |
| --- | --- | --- |
| CC[C@H](CO)NC(=O)c1ccc2c(N3CCC(C(F)(F)F)CC3)nc(OC)cc2c1 [Compound I-65, (R)-N-(1-hydroxybutan-2-yl)-3-methoxy-1-(4-(trifluoromethyl)piperidin-1-yl)isoquinoline-6-carboxamide] | ≤ 500 nM | < 150 nM |
| COC[C@H](C)NC(=O)c1cnc2c(N3CCC(C(F)(F)F)CC3)cc(OC)cc2c1 [Compound I-9, (S)-6-methoxy-N-(1-methoxypropan-2-yl)-8-(4-(trifluoromethyl)piperidin-1-yl)quinoline-3-carboxamide] | ≤ 500 nM | 150 to 300 nM |
| COc1cc(-c2ccc(OC(F)F)cc2)c2ncc(C(=O)N[C@H](C)CO)cc2c1 [Compound I-17, (R)-8-(4-(difluoromethoxy)phenyl)-N-(1-hydroxypropan-2-yl)-6-methoxyquinoline-3-carboxamide] | ≤ 500 nM | < 150 nM |
| COC[C@H](C)NC(=O)c1ccc2c(-c3ccc(C(F)(F)F)cc3)nc(OC)cc2c1 [I″-54, (S)-3-Methoxy-N-(1-methoxypropan-2-yl)-1-(4-(trifluoromethyl)phenyl)isoquinoline-6-carboxamide] | ≤ 500 nM | < 150 nM |
| COC[C@H](C)NC(=O)c1ccc2c(N3CCC(C(F)(F)F)CC3)nc(OC)cc2c1 [Compound I-50, (S)-3-Methoxy-N-(1-methoxypropan-2-yl)-1-(4-(trifluoromethyl)piperidin-1-yl)isoquinoline-6-carboxamide] | 500 to 1000 nM | < 150 nM |
| C#Cc1cccc2cc(C(=O)N[C@@H](C)c3ccccn3)cnc12 [Compound 30, (S)-8-ethynyl-N-(1-(pyridin-2-yl)ethyl)quinoline-3-carboxamide] | > 5000 nM | > 500 nM |
| C[C@H](CO)NC(=O)c1cnc2c(N3CCC4(CC3)CC4)cc(OC(F)(F)F)cc2c1 [Compound I-24, (R)-N-(1-hydroxypropan-2-yl)-8-(6-azaspiro[2.5]octan-6-yl)-6-(trifluoromethoxy)quinoline-3-carboxamide] | > 5000 nM | > 500 nM |
| COc1cc(N2CCC(C(F)(F)F)CC2)c2ncc(C(=O)NC(C)(C)CO)cc2c1 [Compound I-10, N-(1-hydroxy-2-methylpropan-2-yl)-6-methoxy-8-(4-(trifluoromethyl)piperidin-1-yl)quinoline-3-carboxamide] | 1000 to 5000 nM | 300 to 500 nM |
| COc1cc2cc(C(=O)N[C@H](C)CO)ccc2c(N2CCC(C(F)(F)F)CC2)n1 [Compound I-49, (R)-N-(1-hydroxypropan-2-yl)-3-methoxy-1-(4-(trifluoromethyl)piperidin-1-yl)isoquinoline-6-carboxamide] | ≤ 500 nM | < 150 nM |
| COc1cc(N2CCC(C(C)(C)C)CC2)c2ncc(C(=O)N[C@H](C)CO)cc2c1 [Compound I-2, (R)-8-(4-(tert-butyl)piperidin-1-yl)-N-(1-hydroxypropan-2-yl)-6-methoxyquinoline-3-carboxamide] | ≤ 500 nM | 300 to 500 nM |
| CC(NC(=O)c1ccc2c(OCC3CCC(F)(F)CC3)cccc2c1)c1ccccn1 (stereo not drawn) [Compound I-45, 5-((4,4-difluorocyclohexyl)methoxy)-N-(1-(pyridin-2-yl)ethyl)-2-naphthamide] | 1000 to 5000 nM | < 150 nM |
| COc1cc(N2CCC(C(F)F)CC2)c2ncc(C(=O)N[C@H](C)CO)cc2c1 [Compound I-7, (R)-8-(4-(difluoromethyl)piperidin-1-yl)-N-(1-hydroxypropan-2-yl)-6-methoxyquinoline-3-carboxamide] | 1000 to 5000 nM | 150 to 300 nM |
| CC[C@@H](CO)NC(=O)c1cnc2c(N3CCC(C(F)(F)F)CC3)cc(OC)cc2c1 [Compound I-14, (S)-N-(1-hydroxybutan-2-yl)-6-methoxy-8-(4-(trifluoromethyl)piperidin-1-yl)quinoline-3-carboxamide] | 1000 to 5000 nM | 150 to 300 nM |
| CC(CO)NC(=O)c1ccc2c(OCc3ccc(C(F)(F)F)cc3)cccc2c1 (stereo not drawn) [Compound I-44, N-(1-hydroxypropan-2-yl)-5-((4-(trifluoromethyl)benzyl)oxy)-2-naphthamide] | > 5000 nM | – |
| COc1cc(-c2ccc(C(C)(C)O)cc2)c2ncc(C(=O)N[C@H](C)CO)cc2c1 [I′-34, (R)-N-(1-hydroxypropan-2-yl)-8-(4-(2-hydroxypropan-2-yl)phenyl)-6-methoxyquinoline-3-carboxamide] | > 5000 nM | 300 to 500 nM |
| COc1cc(N2CCC(C(F)(F)F)CC2)c2ncc(C(=O)N[C@@H](CO)C(C)C)cc2c1 [Compound I-35, (R)-N-(1-hydroxy-3-methylbutan-2-yl)-6-methoxy-8-(4-(trifluoromethyl)piperidin-1-yl) quinolone-3-carboxamide] | 500 to 1000 nM | 300 to 500 nM |
| COc1cc(-c2ccc(OC(C)(C)C)cc2)c2ncc(C(=O)N[C@H](C)CO)cc2c1 [Compound I-16, (R)-8-(4-(tert-butoxy)phenyl)-N-(1-hydroxypropan-2-yl)-6-methoxyquinoline-3-carboxamide] | 1000 to 5000 nM | 150 to 300 nM |
| COc1cc(N2CCC3(CC2)CC3)c2ncc(C(=O)N[C@H](C)CO)cc2c1 [Compound I-3, (R)-N-(1-hydroxypropan-2-yl)-6-methoxy-8-(6-azaspiro[2.5]octan-6-yl)quinoline-3-carboxamide] | 500 to 1000 nM | 150 to 300 nM |
| Cc1cc2cc(C(=O)N[C@H](C)CO)ccc2c(N2CCC(C(F)(F)F)CC2)n1 [Compound I-48, (R)-N-(1-hydroxypropan-2-yl)-3-methyl-1-(4-(trifluoromethyl)piperidin-1-yl)isoquinoline-6-carboxamide] | ≤ 500 nM | 150 to 300 nM |
| CC(CO)NC(=O)c1cnc2c(OCC3CCC(F)(F)CC3)cccc2c1 (stereo not drawn) [Compound I-47, 8-((4,4-difluorocyclohexyl)methoxy)-N-(1-hydroxypropan-2-yl)quinoline-3-carboxamide] | > 5000 nM | > 500 nM |
| C[C@H](NC(=O)c1cnc2c(-c3ccc(C#N)cc3)cccc2c1)c1ccccn1 [I′-32, (S)-8-(4-cyanophenyl)-N-(1-(pyridin-2-yl)ethyl)quinoline-3-carboxamide] | 1000 to 5000 nM | 300 to 500 nM |
| COC[C@H](C)NC(=O)c1cnc2c(N3CCC(C(F)(F)F)CC3)cccc2c1 [Compound I-61, (S)-N-(1-methoxypropan-2-yl)-8-(4-(trifluoromethyl)piperidin-1-yl)quinoline-3-carboxamide] | 500 to 1000 nM | 150 to 300 nM |
| COc1cc2cc(C(=O)N[C@@H](C)c3ccccn3)ccc2c(-c2ccc(C(F)(F)F)cc2)n1 [I″-55, (S)-3-methoxy-N-(1-(pyridin-2-yl)ethyl)-1-(4-(trifluoromethyl)phenyl)isoquinoline-6-carboxamide] | ≤ 500 nM | < 150 nM |
| COc1cc(-c2ccc(C(C)(C)C)cc2)c2ncc(C(=O)N[C@H](C)CO)cc2c1 [I′-33, (R)-8-(4-(tert-butyl)phenyl)-N-(1-hydroxypropan-2-yl)-6-methoxyquinoline-3-carboxamide] | 500 to 1000 nM | 150 to 300 nM |
| COc1cc(N2CCN(CC(F)(F)F)CC2)c2ncc(C(=O)N[C@H](C)CO)cc2c1 [Compound I-8, (R)-N-(1-hydroxypropan-2-yl)-6-methoxy-8-(4-(2,2,2-trifluoroethyl)piperazin-1-yl)quinoline-3-carboxamide] | > 5000 nM | > 500 nM |
| COc1cc(-c2ccc(OC(F)(F)F)cc2F)c2ncc(C(=O)N[C@H](C)CO)cc2c1 [Compound I-21, (R)-8-(2-fluoro-4-(trifluoromethoxy)phenyl)-N-(1-hydroxypropan-2-yl)-6-methoxyquinoline-3-carboxamide] | ≤ 500 nM | – |
| C[C@H](CO)NC(=O)c1cnc2c(N3CCC4(CC3)CC4)cc(OC(F)F)cc2c1 [Compound I-27, (R)-6-(difluoromethoxy)-N-(1-hydroxypropan-2-yl)-8-(6-azaspiro[2.5]octan-6-yl)quinoline-3-carboxamide] | 1000 to 5000 nM | – |
